# System: primary rat mixed cortical cells
# Test: In vitro myelination assay (MBP positive myelin strands, fold myelin pixels above background)
# Assay type: cell-based
# Details: Rattus norvegicus, relative to baseline of no added compound; for fold induction at 1 µM: 1.0 μM compound, read-out: Fold myelin pixels above background, 1.0 μM; for fold induction at 10 µM: 10.0 μM compound, read-out: Fold myelin pixels above background, 10.0 μM
# How it was run: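 Fourteen-day treatment of primary P1 rat mixed cortical cultures, re-dosed at days 6 and 10, at 1.0 μM and 10.0 μM. MBP immunofluorescence was imaged at 10× and myelin strands quantified by software, normalised to untreated wells as fold above background.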
smiles,measurement,value
"Cc1cc(Nc2ncn(-c3ccccc3)n2)cc(N2C[C@@H]3C[C@H]2CN3C2COC2)c1 [Compound 219, N-[3-methyl-5-[(1S,4S)-2-(oxetan-3-yl)-2,5-diazabicyclo[2.2.1]heptan-5-yl]phenyl]-1-phenyl-1,2,4-triazol-3-amine]",fold induction at 1 µM,100 to 1000
same,fold induction at 10 µM,1 to 10
"Cc1cc(Nc2ncn(-c3cc(F)cc(Cl)c3)n2)cc(N2CCN(C)CC2)c1 [Compound 220, 1-(3-chloro-5-fluoro-phenyl)-N-[3-methyl-5-(4-methylpiperazin-1-yl)phenyl]-1,2,4-triazol-3-amine]",fold induction at 1 µM,10 to 100
same,fold induction at 10 µM,≤ 1
"Cc1cc(Nc2ncn(-c3cc(F)cc(F)c3)n2)cc(C2CCN(C3COC3)CC2)c1 [Compound 221, 1-(3,5-difluorophenyl)-N-[3-methyl-5-[1-(oxetan-3-yl)-4-piperidyl]phenyl]-1,2,4-triazol-3-amine]",fold induction at 1 µM,1 to 10
same,fold induction at 10 µM,100 to 1000
"c1ccc(-n2cnc(Nc3cc(C4CC4)nc(N4CCOCC4)c3)n2)cc1 [Compound 222, 2-cyclopropyl-6-morpholino-N-(1-phenyl-1,2,4-triazol-3-yl)pyridin-4-amine]",fold induction at 1 µM,100 to 1000
same,fold induction at 10 µM,1 to 10
"Cc1cc(Nc2ncn(-c3ccccc3F)n2)cc(N2CCN(C3COC3)CC2)c1 [Compound 223, 1-(2-fluorophenyl)-N-[3-methyl-5-[4-(oxetan-3-yl)piperazin-1-yl]phenyl]-1,2,4-triazol-3-amine]",fold induction at 1 µM,10 to 100
same,fold induction at 10 µM,10 to 100
"Cc1cc(Nc2ncn(-c3ccncc3)n2)cc(N2CCN(C3COC3)CC2)c1 [Compound 224, N-[3-methyl-5-[4-(oxetan-3-yl)piperazin-1-yl]phenyl]-1-(4-pyridyl)-1,2,4-triazol-3-amine]",fold induction at 1 µM,100 to 1000
same,fold induction at 10 µM,10 to 100
"Fc1ccccc1-n1cnc(Nc2cc(C3CC3)cc(N3CCN(C4COC4)CC3)c2)n1 [Compound 225, N-[3-cyclopropyl-5-[4-(oxetan-3-yl)piperazin-1-yl]phenyl]-1-(2-fluorophenyl)-1,2,4-triazol-3-amine]",fold induction at 1 µM,100 to 1000
same,fold induction at 10 µM,100 to 1000
"CN1CCN(c2cc(Nc3ncn(-c4ccnc(F)c4)n3)cc(C(F)(F)F)c2)CC1 [Compound 226, 1-(2-fluoro-4-pyridyl)-N-[3-(4-methylpiperazin-1-yl)-5-(trifluoromethyl)phenyl]-1,2,4-triazol-3-amine]",fold induction at 1 µM,100 to 1000
same,fold induction at 10 µM,≤ 1
"Cc1cc(Nc2ncn(-c3ccccc3)n2)cc(N2CCN3C(=O)OCC3C2)c1 (stereo not shown) [Compound 227, 7-[3-methyl-5-[(1-phenyl-1,2,4-triazol-3-yl)amino]phenyl]-5,6,8,8a-tetrahydro-1H-oxazolo[3,4-a]pyrazin-3-one]",fold induction at 1 µM,100 to 1000
same,fold induction at 10 µM,10 to 100
"Cc1cc(Nc2ncn(-c3cc(F)cc(F)c3)n2)cc(N2CCN(C3CS(=O)(=O)C3)CC2)c1 [Compound 228, 1-(3,5-difluorophenyl)-N-[3-[4-(1,1-dioxothietan-3-yl)piperazin-1-yl]-5-methyl-phenyl]-1,2,4-triazol-3-amine]",fold induction at 1 µM,10 to 100
same,fold induction at 10 µM,100 to 1000
"Cc1cc(Nc2ncn(-c3cc(F)cc(F)c3)n2)cc(C2CN(C3COC3)C2)c1 [Compound 229, 1-(3,5-difluorophenyl)-N-[3-methyl-5-[1-(oxetan-3-yl)azetidin-3-yl]phenyl]-1,2,4-triazol-3-amine]",fold induction at 1 µM,100 to 1000
same,fold induction at 10 µM,100 to 1000
"Fc1cc(Nc2ncn(-c3cccc(F)c3)n2)cc(C2CCN(C3COC3)C2)c1 (stereo not shown) [Compound 230, N-[3-fluoro-5-[1-(oxetan-3-yl)pyrrolidin-3-yl]phenyl]-1-(3-fluorophenyl)-1,2,4-triazol-3-amine]",fold induction at 1 µM,1000 to 10000
same,fold induction at 10 µM,≤ 1
"Cc1cc(Nc2ncn(-c3ccc(F)c(F)c3)n2)cc(N2CCN(CC(F)(F)F)CC2)c1 [Compound 231, 1-(3,4-difluorophenyl)-N-[3-methyl-5-[4-(2,2,2-trifluoroethyl)piperazin-1-yl]phenyl]-1,2,4-triazol-3-amine]",fold induction at 1 µM,100 to 1000
same,fold induction at 10 µM,100 to 1000
"Cc1cc(Nc2ncn(-c3cc(F)nc(F)c3)n2)cc(N2CCN(C3COC3)CC2)c1 [Compound 232, 1-(2,6-difluoro-4-pyridyl)-N-[3-methyl-5-[4-(oxetan-3-yl)piperazin-1-yl]phenyl]-1,2,4-triazol-3-amine]",fold induction at 1 µM,10 to 100
same,fold induction at 10 µM,10 to 100
"COCc1ccccc1-n1cnc(Nc2cc(C)cc(N3CCN(C4COC4)CC3)c2)n1 [Compound 233, 1-[2-(methoxymethyl)phenyl]-N-[3-methyl-5-[4-(oxetan-3-yl)piperazin-1-yl]phenyl]-1,2,4-triazol-3-amine]",fold induction at 1 µM,≤ 1
same,fold induction at 10 µM,≤ 1
"C1=C(c2cc(Nc3ncn(-c4ccccc4)n3)cc(C3=CCOC3)c2)COC1 [Compound 234, N-[3,5-bis(2,5-dihydrofuran-3-yl)phenyl]-1-phenyl-1,2,4-triazol-3-amine]",fold induction at 1 µM,1 to 10
same,fold induction at 10 µM,100 to 1000
"Cc1cc(Nc2ncn(-c3cc(F)cc(F)c3)n2)cc(C2CCN(C3COC3)CC2(F)F)c1 (stereo not shown) [Compound 235, N-[3-[3,3-difluoro-1-(oxetan-3-yl)-4-piperidyl]-5-methyl-phenyl]-1-(3,5-difluorophenyl)-1,2,4-triazol-3-amine]",fold induction at 1 µM,10 to 100
same,fold induction at 10 µM,10 to 100
"CCCc1cc(Nc2ncn(-c3cnccn3)n2)cc(N2CCN(C3COC3)CC2)c1 [Compound 236, N-[3-[4-(oxetan-3-yl)piperazin-1-yl]-5-propyl-phenyl]-1-pyrazin-2-yl-1,2,4-triazol-3-amine]",fold induction at 1 µM,≤ 1
same,fold induction at 10 µM,≤ 1
"Cc1cc(N2CCN(C3COC3)CC2)cc(Nc2ncn(-c3ccccc3)n2)c1C [Compound 237, N-[2,3-dimethyl-5-[4-(oxetan-3-yl)piperazin-1-yl]phenyl]-1-phenyl-1,2,4-triazol-3-amine]",fold induction at 1 µM,1000 to 10000
same,fold induction at 10 µM,100 to 1000
"Cc1cc(Nc2ncn(-c3cc(F)cc(F)c3)n2)cc(N2CCC(O)CC2)c1 [Compound 238, 1-[3-[[1-(3,5-difluorophenyl)-1,2,4-triazol-3-yl]amino]-5-methyl-phenyl]piperidin-4-ol]",fold induction at 1 µM,1000 to 10000
same,fold induction at 10 µM,100 to 1000
"Cc1cc(Nc2ncn(-c3ccccc3)n2)cc(O[C@H]2CCN(C3COC3)C2)c1 [Compound 239, N-[3-methyl-5-[(3S)-1-(oxetan-3-yl)pyrrolidin-3-yl]oxy-phenyl]-1-phenyl-1,2,4-triazol-3-amine]",fold induction at 1 µM,1000 to 10000
same,fold induction at 10 µM,≤ 1
"Cc1cc(Nc2ncn(-c3cc(F)cc(F)c3)n2)cc(NC2COC2)c1 [Compound 240, N3-[1-(3,5-difluorophenyl)-1,2,4-triazol-3-yl]-5-methyl-N1-(oxetan-3-yl)benzene-1,3-diamine]",fold induction at 1 µM,100 to 1000
same,fold induction at 10 µM,1 to 10
"Fc1cc(Nc2ncn(-c3cccc(C(F)(F)F)c3)n2)cc(N2CCCC2)c1 [Compound 241, N-(3-fluoro-5-pyrrolidin-1-yl-phenyl)-1-[3-(trifluoromethyl)phenyl]-1,2,4-triazol-3-amine]",fold induction at 1 µM,≤ 1
same,fold induction at 10 µM,≤ 1
